From the NIST ThermoML archive (doi:10.1016/j.jct.2006.08.011)

Columns and labels:
[1] = 298.15 K; 101.33 kPa; Liquid
[2] = refractive index (Na D-line) (dimensionless); settings: 298.15 K; 101.33 kPa; Liquid; Standard Abbe refractometry
[3] = excess molar enthalpy (molar enthalpy of mixing); xn = mol fraction of the nth substance listed; settings: 298.15 K, 101 kPa, Liquid
[4] = refractive index (Na D-line) (dimensionless); xn = mol fraction of the nth substance listed; settings: 298.15 K, 101.3 kPa, Liquid, Standard Abbe refractometry
[5] = xn = mol fraction of the nth substance listed; settings: 298.15 K, Liquid

CCCOC(=O)CC [propyl propanoate]
Settings | mass density [kg/m3] | refractive index
[1] | 875.48 | –
[2] | – | 1.3906

CCCCCC [hexane]
Settings | mass density [kg/m3] | refractive index
[1] | 654.68 | –
[2] | – | 1.3723

CCCOC(=O)CC [propyl propanoate] + Cc1ccccc1
Settings | excess molar enthalpy [kJ/mol] | refractive index
[3], x1 = 0.0547 | -0.0427 | –
[3], x1 = 0.1357 | -0.0932 | –
[3], x1 = 0.1718 | -0.11 | –
[3], x1 = 0.2389 | -0.14 | –
[3], x1 = 0.2823 | -0.153 | –
[3], x1 = 0.3263 | -0.167 | –
[3], x1 = 0.3957 | -0.176 | –
[3], x1 = 0.4277 | -0.176 | –
[3], x1 = 0.5486 | -0.158 | –
[3], x1 = 0.5841 | -0.151 | –
[3], x1 = 0.6522 | -0.137 | –
[3], x1 = 0.709 | -0.123 | –
[3], x1 = 0.7394 | -0.114 | –
[3], x1 = 0.8031 | -0.0954 | –
[3], x1 = 0.8568 | -0.0766 | –
[3], x1 = 0.892 | -0.0547 | –
[3], x1 = 0.9577 | -0.0244 | –
[4], x1 = 0.0625 | – | 1.4858
[4], x1 = 0.1072 | – | 1.4803
[4], x1 = 0.1826 | – | 1.4712
[4], x1 = 0.2232 | – | 1.4665
[4], x1 = 0.2747 | – | 1.4605
[4], x1 = 0.3426 | – | 1.4529
[4], x1 = 0.4514 | – | 1.4411
[4], x1 = 0.4907 | – | 1.437
[4], x1 = 0.5441 | – | 1.4316
[4], x1 = 0.5833 | – | 1.4277
[4], x1 = 0.6451 | – | 1.4218
[4], x1 = 0.7066 | – | 1.416
[4], x1 = 0.7346 | – | 1.4135
[4], x1 = 0.7898 | – | 1.4085
[4], x1 = 0.8508 | – | 1.4031
[4], x1 = 0.9037 | – | 1.3986
[4], x1 = 0.956 | – | 1.3942

[5], 101.3 kPa
Settings | mass density [kg/m3]
x1 = 0.0625 | 863.5
x1 = 0.1072 | 864.46
x1 = 0.1826 | 865.94
x1 = 0.2232 | 866.69
x1 = 0.2747 | 867.57
x1 = 0.3426 | 868.66
x1 = 0.4514 | 870.21
x1 = 0.4907 | 870.73
x1 = 0.5441 | 871.41
x1 = 0.5833 | 871.86
x1 = 0.6451 | 872.53
x1 = 0.7066 | 873.14
x1 = 0.7346 | 873.41
x1 = 0.7898 | 873.9
x1 = 0.8508 | 874.42
x1 = 0.9037 | 874.81
x1 = 0.956 | 875.2

CCCCCC [hexane] + Cc1ccccc1
Settings | excess molar enthalpy [kJ/mol] | refractive index
[3], x1 = 0.0525 | 0.123 | –
[3], x1 = 0.0957 | 0.212 | –
[3], x1 = 0.1586 | 0.316 | –
[3], x1 = 0.2119 | 0.391 | –
[3], x1 = 0.2672 | 0.457 | –
[3], x1 = 0.3135 | 0.494 | –
[3], x1 = 0.3766 | 0.528 | –
[3], x1 = 0.4264 | 0.543 | –
[3], x1 = 0.4723 | 0.547 | –
[3], x1 = 0.5414 | 0.534 | –
[3], x1 = 0.6641 | 0.48 | –
[3], x1 = 0.6927 | 0.456 | –
[3], x1 = 0.7484 | 0.393 | –
[3], x1 = 0.8045 | 0.326 | –
[3], x1 = 0.8657 | 0.241 | –
[3], x1 = 0.9023 | 0.183 | –
[4], x1 = 0.0543 | – | 1.486
[4], x1 = 0.0958 | – | 1.4801
[4], x1 = 0.1667 | – | 1.4701
[4], x1 = 0.2129 | – | 1.4637
[4], x1 = 0.2818 | – | 1.4541
[4], x1 = 0.3261 | – | 1.4482
[4], x1 = 0.3762 | – | 1.4417
[4], x1 = 0.4262 | – | 1.4353
[4], x1 = 0.4769 | – | 1.429
[4], x1 = 0.5136 | – | 1.4246
[4], x1 = 0.5742 | – | 1.4174
[4], x1 = 0.6327 | – | 1.4107
[4], x1 = 0.6862 | – | 1.4047
[4], x1 = 0.7402 | – | 1.3987
[4], x1 = 0.7958 | – | 1.3927
[4], x1 = 0.8548 | – | 1.3866
[4], x1 = 0.9106 | – | 1.381
[4], x1 = 0.9409 | – | 1.378

[5], 101 kPa
Settings | mass density [kg/m3]
x1 = 0.0524 | 848.99
x1 = 0.0926 | 839.12
x1 = 0.1636 | 822.1
x1 = 0.2011 | 813.3
x1 = 0.2475 | 802.64
x1 = 0.3184 | 786.7
x1 = 0.4088 | 767.06
x1 = 0.4739 | 753.36
x1 = 0.5096 | 746
x1 = 0.5734 | 733.08
x1 = 0.6086 | 726.13
x1 = 0.6754 | 713.16
x1 = 0.7338 | 702.09
x1 = 0.7827 | 693.01
x1 = 0.8426 | 682.13
x1 = 0.9055 | 670.97
x1 = 0.9323 | 666.29

Cc1ccccc1 [toluene]
Settings | mass density [kg/m3] | refractive index
[1] | 862.11 | –
[2] | – | 1.4941
